Reference: patent US20050250944A1, “Synthesis and uses of synephrine derivatives” (priority 2004, published 2005)
Entries after “also recorded” stand apart in the source; their conditions may differ. Counter-ions that a name gives are not always drawn.

Tests used:
[1] = tested on: adipose tissue; conditions: Pilkington, Cernohorsky, Muhlbachova, Wenkeova et al.; cited from earlier work
[2] = tested on: human adipocytes; test: Test of lipolytic capacity on human adipocytes (glycerol release); type: cell-based; conditions: for maximal lipolytic response elicited: glycerol released by human abdominal subcutaneous adipocytes, 90 min at 37° C., basal 0%, isoproterenol 100%
Excerpt: The lipolytic capacity of the Synephrine Derivatives can be tested in human adipocytes. For the sake of convenience, for Examples 21 to 24, the known 2-isopropylamino-1-(4-hydroxyphenyl)-ethanol hydrochloride (Formula shown in Example 12, above, also known as isopropylnorsynephrine hydrochloride) is used here as a non-limiting example of a Synephrine Derivative.
In this example, the lipolytic property of isopropylnorsynephrine hydrochloride was compared to that of synephrine hydrochloride (Formula shown in Example 15). The index of lipolytic activity chosen was the glycerol released by freshly originated human adipocytes with reference to basal (0%, without any drug) and maximal (100%) responses to a standard lipolytic reference: isoproterenol.
Adipocytes were isolated from samples of subcutaneous abdominal adipose depot freshly obtained during abdominal lipectomy. The surgical interventions were conducted under general anaesthesia on ten healthy women undergoing abdominal plastic surgery. The human samples were transferred in less than 15 min to the laboratory for adipocyte preparation. The human abdominal subcutaneous adipocytes were obtained by collagenase digestion of the fresh samples of adipose tissue. The isolation, washing, handling and distribution of fat cells were carried out according to the technique described in Carpene, “Assays of Adrenergic Receptors: Including Lipolysis and Binding Measurements”, from Methods in Molecular Biology, supra. Briefly, extemporaneous dilutions of the tested drugs were added in 4 μl in plastic vials which received 400 μl of freshly prepared adipocyte suspension. The given concentrations were the final concentrations in which the cells were incubated for 90 min at 37° C. under gentle shaking. At the end of the experiment, the glycerol released by the cells was determined on an aliquot as described in Carpene, Id.
The mean lipid content in the incubation vials was 17.6±1.0 mg/400 μl, which corresponded to approximately 500,000 cells/vial.

[3] = literature; cited from earlier work
[4] = tested on: β-adrenergic; conditions: literature; cited from earlier work
[5] = target: T1, β3-adrenoceptors (Rattus norvegicus, UniProt P26255); conditions: Carpene et al. 1999; cited from earlier work
T1 construct: comparative studies in mammalian fat cells; host or cells: mammalian fat cells (adipocytes), endogenous receptor
T1 sequence (P26255 whole entry): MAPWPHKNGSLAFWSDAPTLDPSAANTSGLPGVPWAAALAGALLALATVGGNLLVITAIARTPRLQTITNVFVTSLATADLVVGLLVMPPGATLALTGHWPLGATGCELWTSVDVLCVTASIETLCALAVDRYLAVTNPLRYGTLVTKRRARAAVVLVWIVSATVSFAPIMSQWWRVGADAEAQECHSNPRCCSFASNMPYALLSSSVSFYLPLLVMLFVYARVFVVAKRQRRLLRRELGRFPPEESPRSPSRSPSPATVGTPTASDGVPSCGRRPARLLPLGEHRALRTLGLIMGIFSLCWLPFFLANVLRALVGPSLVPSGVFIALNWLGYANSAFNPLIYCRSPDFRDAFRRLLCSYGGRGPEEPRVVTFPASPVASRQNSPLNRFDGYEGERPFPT

[6] = tested on: human fat cells; conditions: Carpene et al.; cited from earlier work
[7] = tested on: rat adipocyte; conditions: Carpene et al.; cited from earlier work
[8] = long use in China; Zhao et al. 1989; cited from earlier work
[9] = ratio to synephrine hydrochloride

## CCCCNCC(O)c1ccc(O)cc1 (stereo not drawn) [Bamethan, 2-butylamino-1-(4-hydroxyphenyl)-ethanol]
[1]
  lipid mobilization properties in vitro: have lipid mobilization properties in vitro

## CCNCC(O)c1ccc(O)cc1 (stereo not drawn) [ethylnorsynephrine, 2-ethylamino-1-(4-hydroxyphenyl)-ethanol]
[1]
  lipid mobilization properties in vitro: have lipid mobilization properties in vitro

## CC(C)NCC(O)c1ccc(O)cc1 (stereo not drawn) [isopropylnorsynephrine hydrochloride, 2-Isopropylamino-1-(4-hydroxyphenyl)-ethanol hydrochloride]
[2]; 1μg/mL versus synephrine hydrochloride at 100 μg/mL
  lipolytic effect at low concentration versus synephrine hydrochloride: still far greater than that of synephrine hydrochloride
[2]; FIG. 1
  maximal lipolytic response elicited: ~60%
[2]; human adipocytes, FIG. 1, hydrochloride
  lipolytic property on human fat cells (in words): strong lipolytic property; also recorded: superior than synephrine hydrochloride
[2]; [9]
  capacity to stimulate human adipocytes lipolysis compared to synephrine hydrochloride: 2 times
  lipolytic potency relative to synephrine hydrochloride: ~100 times

## CC(C)NCC(O)c1ccc(O)cc1 (stereo not drawn) [isopropylnorsynephrine, 2-isopropylamino-1-(4-hydroxyphenyl)-ethanol]
[1]
  lipid mobilization properties in vitro: have lipid mobilization properties in vitro
[3]
  plasma free fatty acid level in vivo: can increase plasma free fatty acid level in vivo
[4]
  adrenergic activity (in words): pure β-adrenergic activity

## NCC(O)c1ccc(O)cc1 (stereo not drawn) [octopamine, 2-amino-1-(4-hydroxyphenyl)-ethanol]
[5]
  selective action on β3-adrenoceptors: can selectively act on β3-adrenoceptors; also recorded: selective activation of β3-adrenoceptor
[6]
  effect on human fat cells (lipolysis): ineffective
[7]
  rat adipocyte lipolysis: effective

## CC(C)(Cc1ccccc1)NCC(O)c1ccc(O)cc1 (stereo not drawn) [phenyl-t-butylnorsynephrine, 2-(phenyl-t-butylamino)-1-(4-hydroxyphenyl)-ethanol]
[1]
  lipid mobilization properties in vitro: have lipid mobilization properties in vitro

## CCCNCC(O)c1ccc(O)cc1 (stereo not drawn) [propylnorsynephrine, 2-propylamino-1-(4-hydroxyphenyl)-ethanol]
[1]
  lipid mobilization properties in vitro: have lipid mobilization properties in vitro

## CNCC(O)c1ccc(O)cc1 (stereo not drawn) [synephrine hydrochloride, 2-Methylamino-1-(4-hydroxyphenyl)-ethanol hydrochloride, reference compound]
[2]; FIG. 1
  maximal lipolytic response elicited: ~30%

## CNCC(O)c1ccc(O)cc1 (stereo not drawn) [synephrine, 2-methylamino-1-(4-hydroxyphenyl)-ethanol]
[1]
  lipid mobilization properties in vitro: have lipid mobilization properties in vitro
[3]
  plasma free fatty acid level in vivo: can increase plasma free fatty acid level in vivo
[8]
  effect on blood pressure: increase blood pressure
[4]
  adrenergic activity (in words): both α- and β-adrenergic activity

## CC(C)(C)NCC(O)c1ccc(O)cc1 (stereo not drawn) [tert-butylnorsynephrine, 2-tert-butylamino-1-(4-hydroxyphenyl)-ethanol]
[1]
  lipid mobilization properties in vitro: have lipid mobilization properties in vitro
